Numbers after ± are expanded uncertainties.
Tests used:
[1] = 101.33 kPa, Liquid, Vibrating tube method
[2] = refractive index (Na D-line) (dimensionless); details: 101.33 kPa, Liquid, Standard Abbe refractometry

SMILES | mass density ([1]; 293.15 K) [kg/m3] | mass density ([1]; 298.15 K) [kg/m3] | mass density ([1]; 313.15 K) [kg/m3] | mass density ([1]; 333.15 K) [kg/m3] | refractive index ([2]; 293.15 K) | refractive index ([2]; 298.15 K) | refractive index ([2]; 313.15 K) | refractive index ([2]; 333.15 K)
CCCCCCCCCCCCCC[P+](CCCCCC)(CCCCCC)CCCCCC.O=S(=O)([N-]S(=O)(=O)C(F)(F)F)C(F)(F)F | 1069.1 ± 2 | 1065.4 ± 2 | 1054.5 ± 2 | 1039.9 ± 2 | 1.45164 ± 0.0008 | 1.44963 ± 0.00075 | 1.44561 ± 0.00076 | 1.43858 ± 0.00078
CC(=O)[O-].CCCCn1cc[n+](C)c1 [1-butyl-3-methylimidazolium acetate] | 1056.2 ± 2.2 | 1053.2 ± 2.2 | 1044 ± 2.2 | 1032.2 ± 2.2 | 1.49481 ± 0.0008 | 1.49381 ± 0.00083 | 1.48879 ± 0.00083 | 1.48377 ± 0.00081
CCCCCCCCCCCCn1cc[n+](C)c1.O=S(=O)([N-]S(=O)(=O)C(F)(F)F)C(F)(F)F | 1249 ± 2 | 1244.7 ± 2 | 1231.8 ± 2 | 1215.1 ± 2 | 1.43958 ± 0.0008 | 1.43758 ± 0.00075 | 1.43356 ± 0.00075 | 1.42754 ± 0.00076
CCCCCCCCCCn1cc[n+](C)c1.O=S(=O)([N-]S(=O)(=O)C(F)(F)F)C(F)(F)F | 1282.8 ± 2 | 1278.3 ± 2 | 1265.3 ± 2 | 1248.2 ± 2 | 1.43658 ± 0.00072 | 1.43557 ± 0.00076 | 1.43055 ± 0.00076 | 1.42452 ± 0.00076
CCCCCCn1cc[n+](C)c1.F[P-](F)(F)(F)(F)F [1-hexyl-3-methylimidazolium hexafluorophosphate] | 1296.4 ± 2 | 1292.4 ± 2 | 1280.4 ± 2 | 1264.9 ± 2 | 1.41849 ± 0.0008 | 1.41648 ± 0.00073 | 1.41346 ± 0.00073 | 1.40844 ± 0.00074
CCCCn1cc[n+](C)c1.O=S(=O)([O-])C(F)(F)F [1-butyl-3-methylimidazolium trifluoromethanesulfonate] | 1303.5 ± 2 | 1299.5 ± 2 | 1287.7 ± 2 | 1272.1 ± 2 | 1.43758 ± 0.00072 | 1.43657 ± 0.00076 | 1.43155 ± 0.00076 | 1.42552 ± 0.00076
CCCCCCCC[n+]1ccn(C)c1.F[P-](F)(F)(F)(F)F [1-octyl-3-methylimidazolium hexafluorophosphate] | 1237.8 ± 2 | 1234 ± 2 | 1222.4 ± 2 | 1207.5 ± 2 | 1.42452 ± 0.00072 | 1.42351 ± 0.00074 | 1.41949 ± 0.00075 | 1.41347 ± 0.00076
CCCCCC[n+]1ccn(C)c1.O=S(=O)([N-]S(=O)(=O)C(F)(F)F)C(F)(F)F | 1375.5 ± 2.1 | 1371 ± 2.1 | 1357.2 ± 2.1 | 1339.1 ± 2.1 | 1.43155 ± 0.0008 | 1.42954 ± 0.00075 | 1.42552 ± 0.00074 | 1.4205 ± 0.00074
